Assay [1] deals with E. coli w958. The experiment in a line: Dielectrophoretic test (cell elongation). The assay is classed as cell-based, Escherichia coli. The note with it: cefazolin 2 μg/mL, 120 minutes. How it is done: (§1) The bacterial suspension (100 μl) and TBS culture media (containing the antibiotic at different concentrations, 900 μl) were mixed ([…]) and incubated at 37° C. in a shaking incubator for 60 minutes. After the treatment, the bacterial suspensions (500-1000 μl) were centrifugated at 3000-5000 rpm for 3-5 minutes. The supernatant of the bacterial suspensions was removed. Finally, 0.2 M 4-(2-hydroxyethyl)-1-piperazineethanesulfonic acid (HEPES) buffer (500 μl, σ=3 mS/cm, Invitrogen 15630) was added to the remaining bacteria and the formed bacterial suspensions were shaken using a vortex mixer (Shin Kwang, Taiwan) for 30 seconds to avoid aggregation of the bacteria for the following dielectrophoretic tests.
(§2) The bacterial suspensions (5 μl) were pipetted into a sample well of the chip of Preparation Example 1. The electrode array was then connected to a function generator (Fluke 284 USA) and supplied with an alternating current signal or dielectrophoresis. The frequency of E. coli migrating from the electrode center to the electrode edge, was determined as crossover frequency (cof). During dielectrophoresis, the images were observed and recorded through an inverted microscope (Olympus IX70, Japan) and a CCD camera (Microfire, Optronics).
(§3) In the same manner as that of Example 1, a cefazolin solution at 2 μg/mL was prepared and used to act on E. coli ATCC 25922, w958, and BCRC 15501 for 120 minutes for the following dielectrophoretic testing. Among these cell lines, E. coli w958 from National Cheng Kung University Hospital in Taiwan is a drug-resistant bacterium isolated from clinical samples.

Assay [2] relates to E. coli BCRC 15501. Briefly: Dielectrophoretic test (cell elongation). The note with it: cefazolin 2 μg/mL, 120 minutes. The assay is classed as cell-based, Escherichia coli. How it is done:
as §1, §2, §3

Assay [3] deals with E. coli ATCC 25922. Briefly: Dielectrophoretic test (cell elongation, crossover frequency). The assay is classed as cell-based, Escherichia coli. The note with it: for dielectrophoretic behaviour and cell elongation: alternating current frequency 600 kHz. How it is done:
Phosphate-buffered saline (PBS) containing 137 mM NaCl, 2.7 mM KCl, 4.3 mM Na2HPO4, and 1.47 mM KH2PO4 at pH 7.4 was prepared. An oral β-lactam antibiotic, cephalexin (Sigma, USA), which generally is used in the treatment of urinary tract infection (UTI), was dissolved in 1×PBS and prepared into a stock concentration of 1024 μg/mL. This stock concentration was diluted with trypticase soy broth (TBS) into 4 μg/mL and 32 μg/mL.
Among different cell lines of Escherichia coli causing urinary infection, E. coli ATCC 25922 was selected and cultured with TBS under shaking at 37° C. Then, the bacterial concentration of the culture suspensions was adjusted to 1.5×10^6 cells/ml by a densitometer (VITEK 2, BioMérieux).
as §1, §2
In the same manner as that of Example 1, the antibiotic solutions at 1 μg/mL, 2 μg/mL, 4 μg/mL, 8 μg/mL, 16 μg/mL, 32 μg/mL, and 64 μg/mL were prepared and their action periods of time were 30, 60, and 120 minutes. In addition, the chip of Preparation Example 2 was used in the analysis. For measurement of the cell length of E. coli during dielectrophoresis, when the bacteria were straightly arranged on an ITO quadruple electrode by field-induced dielectrophoretic force, the cell length was analyzed by the image software (FreePlus32).
as §3

Assay [4] concerns E. coli w958. The experiment in a line: Conventional broth dilution method. The assay is classed as cell-based. The note with it: Escherichia coli, 0-16 μg/mL tested, read-out: inhibitory concentration (MIC). How it is done: (§4) In order to confirm that the results from Example 3 of the present invention are not different from those from a conventional method, a broth dilution method was carried out on E. coli ATCC 25922, w958, and BCRC 15501 at 0 μg/mL, 0.5 μg/mL, 1 μg/mL, 2 μg/mL, 4 μg/mL, 8 μg/mL, 16 μg/mL of cefazolin. The results are shown in FIGS. 6 (a) to (c), wherein No denotes no bacteria.

Assay [5] concerns E. coli ATCC 25922. The experiment in a line: Conventional broth dilution method. The assay is classed as cell-based. The note with it: Escherichia coli, ATCC25922, 0-16 μg/mL tested, read-out: inhibitory concentration (MIC). How it is done:
as §4
A general note: Dilution methods test growth across graded concentrations, often in twofold steps.

Assay [6] has as its system E. coli BCRC 15501. The experiment in a line: Conventional broth dilution method. It is filed as cell-based. Particulars: Escherichia coli, BCRC15501, 0-16 μg/mL tested, read-out: inhibitory concentration (MIC). How it is done: as §4
The next assay deals with E. coli. Briefly: Conventional agar dilution method. It is filed as cell-based. The note with it: Escherichia coli. An excerpt: In order to confirm that the MIC determined in Example 2 of the present invention is not different from that determined in conventional methods, an agar dilution method was used to determine the MIC of cephalexin to E. coli.
In general terms: Agar dilution tests growth on a series of plates holding different concentrations.

≈ marks a conversion by molar mass, not a printed value.

In the case of `Cc1nnc(SCC2=C(C(=O)O)N3C(=O)[C@@H](NC(=O)Cn4cnnn4)[C@H]3SC2)s1` [cefazolin], the “drug resistance of the bacterium” value is on record as “resistant to cefazolin” in the assay with E. coli w958 [1]; “not resistant to cefazolin” in the assay with E. coli BCRC 15501 [2]; “not resistant to cefazolin” in the assay with E. coli ATCC 25922 [3] (cefazolin 2 μg/mL, 120 minutes). Also, the morphological cell elongation result with E. coli w958 [1] was “morphological cell elongation is unobvious”. Also, the cell elongation result was “obvious cell elongation occurs” with E. coli BCRC 15501 [2] and “obvious cell elongation occurs” in the assay with E. coli ATCC 25922 [3] (cefazolin 2 μg/mL, 120 minutes). The MIC in the assay on E. coli w958 [4] was over 16 µg/mL; with E. coli ATCC 25922 [5] it was 2 µg/mL (≈ 4.4 µM); in the assay with E. coli BCRC 15501 [6], 2 µg/mL (≈ 4.4 µM).
In the case of `CC1=C(C(=O)O)N2C(=O)[C@@H](NC(=O)[C@H](N)c3ccccc3)[C@H]2SC1` [cephalexin], the MIC with E. coli is 32 to 64 µg/mL (≈ 92.1 to 184 µM); in the assay on E. coli ATCC 25922 [3] (Escherichia coli, ATCC25922, 1 h, determined by dielectrophoresis, 60 minutes, read-out: minimum inhibitory concentration (MIC)), 32 µg/mL (≈ 92.1 µM). For the same compound, in the assay with E. coli ATCC 25922 [3] (32 μg/mL for 60 minutes), the “crossover frequency (cof)” value was “about 600 kHz”. Further, the cell length entry with E. coli ATCC 25922 [3] (1-64 μg/mL, 30, 60, 120 minutes, FIGS. 3 (a) and (c)) was “cell length increases as the concentration and action time increase”. The morphological cell elongation result was “morphological cell elongation occurs obviously even at a low concentration of the antibiotic” with E. coli ATCC 25922 [3] (FIG. 2 (c), text prints 60 minutes, figure legend 120 minutes) and “morphological cell elongation occurs obviously as the antibiotic concentrations increase” with E. coli ATCC 25922 [3] (antibiotic treatment for 60 minutes, FIG. 2 (b)). Further, the cell elongation entry with E. coli ATCC 25922 [3] (antibiotic 4 μg/ml, 60 minutes, alternating current frequency 4 MHz) is recorded as “some bacteria are slightly elongated”; in the assay with E. coli ATCC 25922 [3] (antibiotic 32 μg/ml for 1 hour, alternating current frequency 4 MHz), “all bacteria have become elongated”. Besides, the “dielectrophoretic behaviour and cell elongation” value is “some bacteria are still arranged at the center of the electrodes by negative dielectrophoretic force. However, the others are adsorbed at the edges of the electrode by positive dielectrophoretic force and slightly elongated” in the assay with E. coli ATCC 25922 [3] (antibiotic 4 μg/ml, 60 minutes); “all bacteria are adsorbed at the edges of the electrode by positive dielectrophoretic force and have become elongated” in the assay with E. coli ATCC 25922 [3] (antibiotic 32 μg/ml for 1 hour). Moreover, the “morphological changes in bacteria” value in the assay on E. coli ATCC 25922 [3] (antibiotic treatment for 30 minutes, FIG. 2 (a)) is recorded as “distinction between morphological changes in bacteria is difficult”.
